Results from US20090305225A1, “Inhibition of Creatine Uptake to Promote Weight Loss” (priority 2005, published 2009).

Legend:
[1] = test system: creatine transporter (CrT) protein; test: Creatine transporter immunoreactivity in rat brain; format: in vivo; conditions: 4 hours after icv 0.4 um/kg; dorsomedial, supramamillary nucleus, III ventricle, habenular (p<0.05), paraventricular thalamic areas; FIG. 7
Protocol: In experiments involving immunohistochemistry, animals were injected icv with CoPP 0.4 umol/kg body weight or with vehicle. Four hours after injection, animals were anesthetized with halothane and perfused through the left ventricle of the heart, initially with oxygenated Krebs buffer and then with ˜350 ml of 4% paraformaldehyde in 0.1M NaCl, pH 7.4 phosphate buffered saline (PBS). Brains were extracted from the skull, hypothalamic blocks dissected (by coronal cuts anterior and posterior to hypothalamic landmarks) and post-fixed in 4% paraformaldehyde solution at 4 degrees C. overnight. The following day, the blocks were transferred to 30% sucrose and incubated overnight at 4 degrees C. […] They were allowed to dry, rewetted with PBS buffer and cover-slipped with Citifluor (Ted Pella, Reading, Calif.). Creatine transporter (CrT) and Fos studies were performed using indirect fluorescence visualization with rabbit anti-CrT (1:40; Alpha Diagnostics, San Antonio, Tex.) with goat anti-rabbit Cy3 (Jackson Immuno Research Laboratories, Inc., West Grove, Pa.) and rabbit c-Fos-AB5 (1:2,000; Oncogene Research Products, Cambridge, Mass.) with goat anti-rabbit Cy3 (1:500; Jackson Immuno Research Laboratories, Inc.) as the secondary antibody. […] Areas of interest were quantitated on each section in which they appeared and averaged to yield means+SEM of percentages. […]

[2] = test system: creatine transporter (CrT) mRNA; test: Real-Time PCR of creatine transporter mRNA in hypothalami of CoPP-treated rats; format: in vivo, rat; conditions: hypothalamus, 48 hours after icv, normalized to L32 mRNA, mean ± SEM
Protocol: RNA was purified with RNAase-free DNase (Promega) at 37 degrees C. for 30 min. The first strand of cDNA was synthesized by adding 1 ug of purified RNA from each sample to 20 ul containing MMLV reverse transcriptase (Invitrogen Life Tech). Creatine transporter (CrT) gene expression was further quantatified by Real-Time PCR using sense primer: 5′[…]′ (SEQ ID NO: 1); antisense primer: 5′[…]-3′ (SEQ ID NO:2) and TaqMan probe: 5′[…]-3′ (SEQ ID NO: 3) (MMG-Biotech). The rat ribosomal protein L32 gene was used as a loading control. Each cDNA sample (1 ul) derived from the 20 ul reverse transcription reaction and 1 ul RNA template was mixed with 24 ul master mixture (Perkin Elmer) in a 96-well TaqMan plate. The PCR was run in an ABI prism 7700 thermocycler (Applied Biosystems) at 50 degrees C. for 2 min and 95 degrees C. for 10 min; this was followed by 95 degrees C. for 15 sec and 60 degrees C. for 1 min for 40 cycles. The data were analyzed using software supplied with the ABI prism 7700.

**Q.** For `C=Cc1c(C)c2cc3[nH]c(cc4nc(cc5nc(cc1[nH]2)C(C)=C5CCC(=O)[O-])C(CCC(=O)[O-])=C4C)c(C)c3C=C.[Co+2]` [CoPP, Cobaltic protoporphyrin IX], which “immunoreactive (IR) CrT compared to controls and fasted controls” value [1] is on record?
**A.** Its value is “increased”.

**Q.** What about the “Real-Time PCR” value [2] of the same molecule?
**A.** The value was 0.97 ± 0.050 arbitrary units.
